For assay [1], the system named is IL-23-stimulated phosphorylated STAT3 in peripheral blood mononuclear cells (PBMCs). As to the kind of experiment: PBMC pSTAT3 Assay. To be noted: PBMCs from healthy donors; 30 min preincubation with peptide; IL-23 5 ng/mL for 30 min; phospho-STAT3 by MSD. It is filed as cell-based. A digest of the protocol:
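Phospho-STAT3 quantified by Meso Scale assay in lysates of PBMCs exposed to IL-23 (5 ng/mL, 30 min, 37 °C) after 30 min peptide pretreatment. Cells were cryopreserved donor PBMCs activated 4 days with anti-CD3 plus IL-1β (100 ng/mL) and starved ~4 h; IC50 reported.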

The target of the next assay is T1, IL-23R (Homo sapiens, UniProt Q5VWK5).
T1 construct: HEK293 cells containing IL-23R, IL-12Rβ1 and a firefly luciferase reporter gene driven by a STAT-inducible promoter (Promega); host or cells: HEK293
T1 sequence (Q5VWK5 24-629): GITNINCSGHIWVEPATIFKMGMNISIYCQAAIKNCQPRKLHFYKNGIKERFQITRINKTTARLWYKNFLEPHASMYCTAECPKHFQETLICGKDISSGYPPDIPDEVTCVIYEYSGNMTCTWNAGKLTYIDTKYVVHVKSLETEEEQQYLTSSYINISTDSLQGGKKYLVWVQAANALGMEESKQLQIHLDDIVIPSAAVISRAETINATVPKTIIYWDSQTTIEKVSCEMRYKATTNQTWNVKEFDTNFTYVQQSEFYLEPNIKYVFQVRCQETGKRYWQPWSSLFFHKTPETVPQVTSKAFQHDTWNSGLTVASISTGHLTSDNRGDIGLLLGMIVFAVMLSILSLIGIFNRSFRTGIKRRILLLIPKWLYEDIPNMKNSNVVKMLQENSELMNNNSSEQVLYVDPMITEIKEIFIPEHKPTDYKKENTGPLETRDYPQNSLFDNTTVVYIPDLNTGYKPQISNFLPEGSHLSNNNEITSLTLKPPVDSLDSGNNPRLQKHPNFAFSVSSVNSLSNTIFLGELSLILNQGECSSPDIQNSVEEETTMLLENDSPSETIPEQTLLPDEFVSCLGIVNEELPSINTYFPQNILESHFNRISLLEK
In words: IL23R Reporter Assay. The format is cell-based. Particulars: HEK293 cells containing IL-23R, IL-12Rβ1 and STAT-inducible firefly luciferase reporter; 10 ng/mL IL-23 (EC90); 5 h. A digest of the protocol: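 IC50 values were fitted with a 4-parameter Hill equation to luciferase signal, scaled between IL-23-only wells (0% inhibition) and 30 μM reference inhibitor (100%). The readout was a STAT-inducible reporter in IL-23R/IL-12Rβ1 HEK293 cells, stimulated with added 10 ng/mL IL-23 (EC90) for 5 h at 37° C and developed with BioGlo.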

pIC50: −log10 of the molar value. *1 amine or outer side, *2 acyl side, *3 side chain or, on linkers, in order; H or OH if unused. Where a SMILES comes first, the peptide text is derived from it. Bridges are numbered along the chain shown (N, C = ends). Side-chain parts run from the residue outwards. [ ]: non-standard residue; d: D form. The star is where a group is joined. ξ: configuration not given here. X22 = O=C(O)CCCCCCCCCCCCCCCCC(=O)N[C@@H](CCC(=O)NCCOCCOCC(=O)NCCCCCOCC(=O)*)C(=O)O; Me3N+(CH2)2O(CH2)2O(CH2)2CO = C[N+](C)(C)CCOCCOCCC(=O)*; dTrp(7-Me) = Cc1cccc2c(C[C@@H](N)C(=O)O)c[nH]c12; Biotin = O=C1N[C@H]2[C@H](CS[C@H]2CCCCC(=O)*)N1; Trp(7-Me) = Cc1cccc2c(C[C@H](N)C(=O)O)c[nH]c12; C18 diacid = O=C(O)CCCCCCCCCCCCCCCCC(=O)*; γGlu = O=C(O)[C@H](CCC(=O)[*:2])N[*:1]; 2Nal = N[C@@H](Cc1ccc2ccccc2c1)C(=O)O; AEF = NCCOc1ccc(C[C@H](N)C(=O)O)cc1; αMeT = C[C@@H](O)[C@](C)(N)C(=O)O; 3Pal = N[C@@H](Cc1cccnc1)C(=O)O; PEG4 = NCCOCCOCCOCCOCCC(=O)O; Pen = CC(C)(S)[C@H](N)C(=O)O; Thp = NC1(C(=O)O)CCOCC1; ξN = NC(=O)CC(N)C(=O)O; AEEA = NCCOCCOCC(=O)O; Sar = CNCC(=O)O

With `CC(=O)NCCCC[C@@H]1NC(=O)[C@H](Cc2c[nH]c3c(C)cccc23)NC(=O)[C@H]([C@@H](C)O)NC(=O)[C@H](CCCCNC(=O)COCCOCCNC(=O)COCCOCCNC(=O)CC[C@H](NC(=O)CCCCCCCCCCCCCCCCC(=O)O)C(=O)O)NC(=O)[C@@H](NC(=O)[C@@H](CCCNC(=N)N)NC(=O)CCOCCOCC[N+](C)(C)C)C(C)(C)SSC(C)(C)[C@@H](C(=O)N[C@@H](Cc2ccc(OCCN)cc2)C(=O)N[C@@H](Cc2ccc3ccccc3c2)C(=O)NC2(C(=O)N[C@@H](CCC(=O)O)C(=O)N[C@@H](CC(N)=O)C(=O)N[C@@H](Cc3cccnc3)C(=O)N(C)CC(N)=O)CCOCC2)NC1=O` [compound 55, cPEG3aCO-r-Pen(3)-K(PEG2PEG2gEC18OH)-T-7MeW-K(Ac)-Pen(3)-AEF-2Nal-THP-E-N-3Pya-Sar-CONH2] ({Me3N+(CH2)2O(CH2)2O(CH2)2CO}-[dR][Pen]K([AEEA-AEEA-γGlu-C18 diacid])T[Trp(7-Me)]K(Ac)[Pen][AEF][2Nal][Thp]EN[3Pal][Sar]-NH2; disulfide 2-7), the pIC50 in assay [1] was greater than 9.30; on IL-23R it was 6.30 to 7.30.
Take `CC(=O)NCCCC[C@@H]1NC(=O)[C@H](Cc2c[nH]c3c(C)cccc23)NC(=O)[C@](C)([C@@H](C)O)NC(=O)C(CC(N)=O)NC(=O)[C@@H](NC(=O)[C@@H](CCCNC(=N)N)NC(C)=O)C(C)(C)SSC(C)(C)[C@@H](C(=O)N[C@@H](Cc2ccc(OCCN)cc2)C(=O)N[C@@H](Cc2ccc3ccccc3c2)C(=O)NC2(C(=O)N[C@@H](CCCCNC(=O)CCOCCOCCOCCOCCNC(=O)CCCC[C@@H]3SC[C@@H]4NC(=O)N[C@@H]43)C(=O)N[C@@H](CC(N)=O)C(=O)N[C@@H](Cc3cccnc3)C(=O)N(C)CC(=O)N[C@@H](CCCCNC(=O)COCCOCCNC(=O)COCCOCCNC(=O)CC[C@H](NC(=O)CCCCCCCCCCCCCCCCC(=O)O)C(=O)O)C(N)=O)CCOCC2)NC1=O` (stereo partly drawn) [compound 56, MeCO-r-Pen(3)-N-T-7MeW-K(Ac)-Pen(3)-AEF-2Nal-THP-K(BiotinPEG4)-N-3Pya-Sar-K(PEG2PEG2gEC18OH)-CONH2] (Ac-[dR][Pen][ξN][αMeT][Trp(7-Me)]K(Ac)[Pen][AEF][2Nal][Thp]K([PEG4-Biotin])N[3Pal][Sar]K([AEEA-AEEA-γGlu-C18 diacid])-NH2; disulfide 2-7): the pIC50 in assay [1] was greater than 9.30; against IL-23R, greater than 7.30.
`CC(=O)NCCCC[C@@H]1NC(=O)[C@@H](Cc2c[nH]c3c(C)cccc23)NC(=O)[C@H]([C@@H](C)O)NC(=O)[C@H](CC(N)=O)NC(=O)[C@@H](NC(=O)[C@@H](CCCNC(=N)N)NC(=O)CCOCCOCCOCCOCCNC(=O)CCCC[C@@H]2SC[C@@H]3NC(=O)N[C@@H]32)C(C)(C)SSC(C)(C)[C@@H](C(=O)N[C@@H](Cc2ccc(OCCN)cc2)C(=O)N[C@@H](Cc2ccc3ccccc3c2)C(=O)NC2(C(=O)N[C@@H](CCC(=O)O)C(=O)N[C@@H](CC(N)=O)C(=O)N[C@@H](Cc3cccnc3)C(=O)N(C)CC(=O)N[C@@H](CCCCNC(=O)COCCCCCNC(=O)COCCOCCNC(=O)CC[C@H](NC(=O)CCCCCCCCCCCCCCCCC(=O)O)C(=O)O)C(N)=O)CCOCC2)NC1=O` [compound 57, BiotinPEG4CO-r-Pen(3)-N-T-7MeW-K(Ac)-Pen(3)-AEF-2Nal-THP-E-N-3Pya-Sar-K(PEG2PEG2gEC18OH)-CONH2] ({Biotin-PEG4}-[dR][Pen]NT[dTrp(7-Me)]K(Ac)[Pen][AEF][2Nal][Thp]EN[3Pal][Sar]K(X22)-NH2; disulfide 2-7): the figures for the negative-log IC50 (pIC50) (in assay [1]; against IL-23R) were greater than 9.30 and greater than 7.30, respectively.

Usually pIC50 stands for the IC50 on a negative log10 scale, so that one unit is a factor of ten. Higher therefore signals a low IC50.

Source of the values: patent publication US20260250320A1, “LIPIDATED PEPTIDE INHIBITORS OF INTERLEUKIN-23 RECEPTOR” (Janssen Pharmaceutica NV, priority 2023, published 2026).
